Where a SMILES comes first, the peptide text is derived from it. Bridges are numbered along the chain shown (N, C = ends). [ ]: non-standard residue; d: D form. The star is where a group is joined. Bip = N[C@@H](Cc1ccc(-c2ccccc2)cc1)C(=O)O; Phe(3-Me) = Cc1cccc(C[C@H](N)C(=O)O)c1; 4Pal = N[C@@H](Cc1ccncc1)C(=O)O; Cha = N[C@@H](CC1CCCCC1)C(=O)O; Cit = NC(=O)NCCC[C@H](N)C(=O)O; Carboxymethyl = O=C(O)C*; Orn = NCCC[C@H](N)C(=O)O; Dap = NC[C@H](N)C(=O)O
The compounds below were run against T1, human PD-1 / PD-L1-Ig binding on Jurkat cell line over-expressing human PD-1 (Jurkat-PD-1) (Homo sapiens, UniProt Q15116) (assay: Jurkat-PD-1 Cell Binding High-Content Screening Assay (CBA)). Details: Jurkat HPD1_PDL1 IC50, Jurkat-PD-1 cells, PE-labeled PD-L1-Ig 20 nM final.
T1 construct: expressed in transfected cells; host or cells: Jurkat
T1 sequence (Q15116 25-288): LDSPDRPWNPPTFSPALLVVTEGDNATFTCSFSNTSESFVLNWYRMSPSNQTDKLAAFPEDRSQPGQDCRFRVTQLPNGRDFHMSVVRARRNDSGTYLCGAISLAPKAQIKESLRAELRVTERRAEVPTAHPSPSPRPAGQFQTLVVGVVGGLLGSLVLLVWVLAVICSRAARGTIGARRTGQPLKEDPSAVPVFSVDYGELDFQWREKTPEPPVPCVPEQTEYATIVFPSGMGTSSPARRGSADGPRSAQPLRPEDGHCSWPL
Format: cell-based
In short: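 Cell-bound PE-labeled PD-L1-Ig (20 nM final, 1 h) measured by high-content imaging after fixation and Hoechst 33342 counterstain. Compound was applied first for 2 h at 37° C. to Jurkat cells over-expressing human PD-1 in DMEM with 10% FCS.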

| SMILES | IC50 [nM] |
| --- | --- |
| Cc1cccc(C[C@@H]2NC(=O)[C@H](CC(=O)O)NC(=O)[C@H](Cc3ccncc3)NC(=O)[C@H](Cc3ccc(OCC(=O)O)cc3)NC(=O)CSC[C@@H](C(=O)NCC(N)=O)NC(=O)[C@H](CO)NC(=O)[C@H](C(C)C)NC(=O)[C@H](CC3CCCCC3)NC(=O)[C@H](Cc3c[nH]cn3)NC(=O)[C@@H](CC(C)C)NC(=O)[C@H](CCCN)NC(=O)[C@H](C(C)C)NC(=O)[C@H](Cc3ccc(-c4ccccc4)cc3)NC(=O)[C@H](CC(C)C)NC2=O)c1 [Compound 1585] ({CH2CO}-Y(Carboxymethyl)[4Pal]D[Phe(3-Me)]L[Bip]V[Orn][dL]H[Cha]VSCG-NH2; thioether N-14) | 50.4 |
| CC(C)C[C@H]1NC(=O)[C@H](CCCN)NC(=O)[C@H](C(C)C)NC(=O)[C@H](Cc2ccc(-c3ccccc3)cc2)NC(=O)[C@H](C(C)C)NC(=O)[C@H](Cc2c[nH]c3ccccc23)NC(=O)[C@H](CC(=O)O)NC(=O)[C@H](Cc2ccc(OCC(=O)O)cc2)NC(=O)[C@H](Cc2ccc(OCC(=O)O)cc2)NC(=O)CSC[C@@H](C(=O)N[C@@H](C)C(N)=O)NC(=O)[C@H]([C@@H](C)O)NC(=O)[C@H](C(C)C)NC(=O)[C@H](CC2CCCCC2)NC(=O)[C@H](Cc2c[nH]cn2)NC1=O [Compound 1591] | 17.9 |
| CC[C@H](C)[C@@H]1NC(=O)[C@H](Cc2ccc(-c3ccccc3)cc2)NC(=O)[C@H](C(C)C)NC(=O)[C@H](Cc2c[nH]c3ccccc23)NC(=O)[C@H](CC(=O)O)NC(=O)[C@H](Cc2ccc(OCC(=O)O)cc2)NC(=O)[C@H](Cc2ccc(OCC(=O)O)cc2)NC(=O)CSC[C@@H](C(=O)N[C@@H](C)C(N)=O)NC(=O)[C@H]([C@@H](C)O)NC(=O)[C@H](C(C)C)NC(=O)[C@H](CC2CCCCC2)NC(=O)[C@H](Cc2c[nH]cn2)NC(=O)[C@@H](CC(C)C)NC(=O)[C@H](CCCN)NC1=O [Compound 1592] | 31.5 |
| CC(C)C[C@H]1NC(=O)[C@H](CCCN)NC(=O)[C@H](CCCNC(N)=O)NC(=O)[C@H](Cc2ccc(-c3ccccc3)cc2)NC(=O)[C@H](C(C)C)NC(=O)[C@H](Cc2c[nH]c3ccccc23)NC(=O)[C@H](CC(=O)O)NC(=O)[C@H](Cc2ccc(OCC(=O)O)cc2)NC(=O)[C@H](Cc2ccc(OCC(=O)O)cc2)NC(=O)CSC[C@@H](C(=O)N[C@@H](C)C(N)=O)NC(=O)[C@H]([C@@H](C)O)NC(=O)[C@H](C(C)C)NC(=O)[C@H](CC2CCCCC2)NC(=O)[C@H](Cc2c[nH]cn2)NC1=O [Compound 1594] | 19.4 |
| CC(C)C[C@H]1NC(=O)[C@H](CCCN)NC(=O)[C@H](CCC(=O)O)NC(=O)[C@H](Cc2ccc(-c3ccccc3)cc2)NC(=O)[C@H](C(C)C)NC(=O)[C@H](Cc2c[nH]c3ccccc23)NC(=O)[C@H](CC(=O)O)NC(=O)[C@H](Cc2ccc(C(=O)O)cc2)NC(=O)[C@H](Cc2ccncc2)NC(=O)CSC[C@@H](C(=O)N[C@@H](C)C(N)=O)NC(=O)[C@H]([C@@H](C)O)NC(=O)[C@H](C(C)C)NC(=O)[C@H](CC2CCCCC2)NC(=O)[C@H](Cc2c[nH]cn2)NC1=O [Compound 1597] | 20.2 |
| CC(C)C[C@H]1NC(=O)[C@H](CCCN)NC(=O)[C@H](CCCNC(N)=O)NC(=O)[C@H](Cc2ccc(-c3ccccc3)cc2)NC(=O)[C@H](C(C)C)NC(=O)[C@H](Cc2c[nH]c3ccccc23)NC(=O)[C@H](CC(=O)O)NC(=O)[C@H](Cc2ccc(C(=O)O)cc2)NC(=O)[C@H](Cc2ccncc2)NC(=O)CSC[C@@H](C(=O)N[C@@H](C)C(N)=O)NC(=O)[C@H]([C@@H](C)O)NC(=O)[C@H](C(C)C)NC(=O)[C@H](CC2CCCCC2)NC(=O)[C@H](Cc2c[nH]cn2)NC1=O [Compound 1598] | 9.9 |
| CC(C)C[C@H]1NC(=O)[C@H](CCCN)NC(=O)[C@H](CCCNC(N)=O)NC(=O)[C@H](Cc2ccc(-c3ccccc3)cc2)NC(=O)[C@H](C(C)C)NC(=O)[C@H](Cc2c[nH]c3ccccc23)NC(=O)[C@H](CC(=O)O)NC(=O)[C@H](Cc2ccc(C(=O)O)cc2)NC(=O)[C@H](Cc2ccc(OCC(=O)O)cc2)NC(=O)CSC[C@@H](C(=O)N[C@@H](C)C(N)=O)NC(=O)[C@H]([C@@H](C)O)NC(=O)[C@H](C(C)C)NC(=O)[C@H](CC2CCCCC2)NC(=O)[C@H](Cc2c[nH]cn2)NC1=O [Compound 1602] | 23.8 |
| CC[C@H](C)[C@@H]1NC(=O)[C@H](Cc2ccc(-c3ccccc3)cc2)NC(=O)[C@H](C(C)C)NC(=O)[C@H](Cc2c[nH]c3ccccc23)NC(=O)[C@H](CC(=O)O)NC(=O)[C@H](Cc2ccncc2)NC(=O)[C@H](Cc2ccc(OCC(=O)O)cc2)NC(=O)CSC[C@@H](C(=O)N[C@@H](C)C(N)=O)NC(=O)[C@H]([C@@H](C)O)NC(=O)[C@H](C(C)C)NC(=O)[C@H](CC2CCCCC2)NC(=O)[C@H](Cc2c[nH]cn2)NC(=O)[C@@H](CC(C)C)NC(=O)[C@H](CCCN)NC1=O [Compound 1604] | 45.8 |
| CC(C)C[C@H]1NC(=O)[C@H](CCCN)NC(=O)[C@H](CCC(=O)O)NC(=O)[C@H](Cc2ccc(-c3ccccc3)cc2)NC(=O)[C@H](C(C)C)NC(=O)[C@H](Cc2c[nH]c3ccccc23)NC(=O)[C@H](CC(=O)O)NC(=O)[C@H](Cc2ccncc2)NC(=O)[C@H](Cc2ccc(OCC(=O)O)cc2)NC(=O)CSC[C@@H](C(=O)N[C@@H](C)C(N)=O)NC(=O)[C@H]([C@@H](C)O)NC(=O)[C@H](C(C)C)NC(=O)[C@H](CC2CCCCC2)NC(=O)[C@H](Cc2c[nH]cn2)NC1=O [Compound 1605] | 23.1 |

Same assay, conditions: Jurkat-PD-1 cells, PE-labeled PD-L1-Ig 20 nM final; read-out: Jurkat HPD1_PDL1 IC50

| SMILES | IC50 [nM] |
| --- | --- |
| Cc1cccc(C[C@@H]2NC(=O)[C@H](CC(=O)O)NC(=O)[C@H](Cc3ccncc3)NC(=O)[C@H](CN)NC(=O)CSC[C@@H](C(=O)N[C@@H](C)C(N)=O)NC(=O)[C@H]([C@@H](C)O)NC(=O)[C@H](C(C)C)NC(=O)[C@H](CC3CCCCC3)NC(=O)[C@H](Cc3cnc[nH]3)NC(=O)[C@@H](CC(C)C)NC(=O)[C@H](CCCN)NC(=O)[C@H](C(C)C)NC(=O)[C@H](Cc3ccc(-c4ccccc4)cc3)NC(=O)[C@H](C(C)C)NC2=O)c1 [Compound 1583] | 20 |
| Cc1cccc(C[C@@H]2NC(=O)[C@H](CC(=O)O)NC(=O)[C@H](Cc3ccc(O)cc3)NC(=O)[C@H](CC(N)=O)NC(=O)CSC[C@@H](C(=O)N[C@@H](C)C(N)=O)NC(=O)[C@H]([C@@H](C)O)NC(=O)[C@H](C(C)C)NC(=O)[C@H](CC3CCCCC3)NC(=O)[C@H](Cc3cnc[nH]3)NC(=O)[C@@H](CC(C)C)NC(=O)[C@H](CCCN)NC(=O)[C@H](C(C)C)NC(=O)[C@H](Cc3ccc(-c4ccccc4)cc3)NC(=O)[C@H](C(C)C)NC2=O)c1 [Compound 1586] ({CH2CO}-NYD[Phe(3-Me)]V[Bip]V[Orn][dL]H[Cha]VTCA-NH2; thioether N-14) | 17.7 |
| Cc1cccc(C[C@@H]2NC(=O)[C@H](CC(=O)O)NC(=O)[C@H](Cc3ccc(OCC(=O)O)cc3)NC(=O)[C@H](Cc3cccnc3)NC(=O)CSC[C@@H](C(=O)N[C@@H](C)C(N)=O)NC(=O)[C@H]([C@@H](C)O)NC(=O)[C@H](C(C)C)NC(=O)[C@H](CC3CCCCC3)NC(=O)[C@H](Cc3cnc[nH]3)NC(=O)[C@@H](CC(C)C)NC(=O)[C@H](CCCN)NC(=O)[C@H](C(C)C)NC(=O)[C@H](Cc3ccc(-c4ccccc4)cc3)NC(=O)[C@H](C(C)C)NC2=O)c1 [Compound 1587] | 26 |
| Cc1cccc(C[C@@H]2NC(=O)[C@H](CC(=O)O)NC(=O)[C@H](Cc3ccc(OCC(=O)O)cc3)NC(=O)[C@H](Cc3ccncc3)NC(=O)CSC[C@@H](C(=O)N[C@@H](C)C(N)=O)NC(=O)[C@H]([C@@H](C)O)NC(=O)[C@H](C(C)C)NC(=O)[C@H](CC3CCCCC3)NC(=O)[C@H](Cc3cnc[nH]3)NC(=O)[C@@H](CC(C)C)NC(=O)[C@H](CCCN)NC(=O)[C@H](C(C)C)NC(=O)[C@H](Cc3ccc(-c4ccccc4)cc3)NC(=O)[C@H](C(C)C)NC2=O)c1 [Compound 1588] | 25.4 |
| CC[C@H](C)[C@@H]1NC(=O)[C@H](Cc2ccc(-c3ccccc3)cc2)NC(=O)[C@H](C(C)C)NC(=O)[C@H](Cc2c[nH]c3ccccc23)NC(=O)[C@H](CC(=O)O)NC(=O)[C@H](Cc2ccc(OCC(=O)O)cc2)NC(=O)[C@H](CN)NC(=O)CSC[C@@H](C(=O)N[C@@H](C)C(N)=O)NC(=O)[C@H]([C@@H](C)O)NC(=O)[C@H](C(C)C)NC(=O)[C@H](CC2CCCCC2)NC(=O)[C@H](Cc2cnc[nH]2)NC(=O)[C@@H](CC(C)C)NC(=O)[C@H](CCCN)NC1=O [Compound 1589] | 16.4 |
| CC(C)C[C@H]1NC(=O)[C@H](CCCN)NC(=O)[C@H](CCCNC(N)=O)NC(=O)[C@H](Cc2ccc(-c3ccccc3)cc2)NC(=O)[C@H](C(C)C)NC(=O)[C@H](Cc2c[nH]c3ccccc23)NC(=O)[C@H](CC(=O)O)NC(=O)[C@H](Cc2ccc(OCC(=O)O)cc2)NC(=O)[C@H](CN)NC(=O)CSC[C@@H](C(=O)N[C@@H](C)C(N)=O)NC(=O)[C@H]([C@@H](C)O)NC(=O)[C@H](C(C)C)NC(=O)[C@H](CC2CCCCC2)NC(=O)[C@H](Cc2c[nH]cn2)NC1=O [Compound 1590] ({CH2CO}-[Dap]Y(Carboxymethyl)DWV[Bip][Cit][Orn][dL]H[Cha]VTCA-NH2; thioether N-14) | 9 |
| CC(C)C[C@H]1NC(=O)[C@H](CCCN)NC(=O)[C@H](CCC(=O)O)NC(=O)[C@H](Cc2ccc(-c3ccccc3)cc2)NC(=O)[C@H](C(C)C)NC(=O)[C@H](Cc2c[nH]c3ccccc23)NC(=O)[C@H](CC(=O)O)NC(=O)[C@H](Cc2ccc(OCC(=O)O)cc2)NC(=O)[C@H](Cc2ccc(OCC(=O)O)cc2)NC(=O)CSC[C@@H](C(=O)N[C@@H](C)C(N)=O)NC(=O)[C@H]([C@@H](C)O)NC(=O)[C@H](C(C)C)NC(=O)[C@H](CC2CCCCC2)NC(=O)[C@H](Cc2cnc[nH]2)NC1=O [Compound 1593] | 23 |
| CC(C)C[C@H]1NC(=O)[C@H](CCCN)NC(=O)[C@H](C(C)C)NC(=O)[C@H](Cc2ccc(-c3ccccc3)cc2)NC(=O)[C@H](C(C)C)NC(=O)[C@H](Cc2c[nH]c3ccccc23)NC(=O)[C@H](CC(=O)O)NC(=O)[C@H](Cc2ccc(OCC(=O)O)cc2)NC(=O)[C@H](Cc2ccncc2)NC(=O)CSC[C@@H](C(=O)N[C@@H](C)C(N)=O)NC(=O)[C@H]([C@@H](C)O)NC(=O)[C@H](C(C)C)NC(=O)[C@H](CC2CCCCC2)NC(=O)[C@H](Cc2cnc[nH]2)NC1=O [Compound 1607] | 14.6 |
